Results on 32 molecules are retold here after ChEMBL document CHEMBL3232786, “Therapeutic utility of cannabinoid receptor type 2 (CB(2)) selective agonists” (J Med Chem, 2013).

pEC50, pIC50, pKi: −log10 of the molar value.

For test [1], the target named is T1, Cannabinoid receptor 1 (Homo sapiens, UniProt P21554). In words: Binding affinity to CB1 receptor (unknown origin).
The target in test [2] is T1, Cannabinoid receptor 1. In words: Agonist activity at human CB1 receptor assessed as inhibition of forskolin-induced cAMP production preincubated for 15 mins followed by forskolin challenge measured after 30 mins by HTRF assay. Format: functional. On the technique in general: cAMP levels reflect the balance of adenylyl cyclase and phosphodiesterase activity.
Test [3] concerns the target T2, Cannabinoid receptor 2 (Homo sapiens, UniProt P34972). Put plainly: Agonist activity at human CB2 receptor transfected in CHO-K1 cells assessed as cAMP change. The class given is functional, cell-based.
Test [4] deals with T2, Cannabinoid receptor 2. Put plainly: Binding affinity to CB2 receptor (unknown origin).
The species entered for the next test is Homo sapiens. In words: Selectivity ratio of Ki for human CB1 receptor to Ki for human CB2 receptor.
Test [5] addresses T2, Cannabinoid receptor 2. In words: Agonist activity at human CB2 receptor assessed as inhibition of forskolin-induced cAMP production preincubated for 15 mins followed by forskolin challenge measured after 30 mins by HTRF assay. Format: functional.
For test [6], the target named is T1, Cannabinoid receptor 1. In words: Displacement of [3H]-CP55940 from human CB1 receptor expressed in CHO-K1 cells by liquid scintillation counting. The following applies: read-out: EC50 (the source's name). Format: cell-based. On the technique in general: Loss of bound radioactivity is the signal in a displacement assay; it reports binding, not function.
Test [7] deals with T2, Cannabinoid receptor 2. In words: Displacement of [3H]-CP55940 from human CB2 receptor expressed in CHO-K1 cells by liquid scintillation counting. The class given is cell-based.
For test [8], the target named is T2, Cannabinoid receptor 2. Put plainly: Agonist activity at human CB2 receptor expressed in Saccharomyces cerevisiae MMY23 using fluorescein di-beta-D-glucopyranoside as substrate after 24 hrs by fluorescence-based assay.
Test [9] deals with T2, Cannabinoid receptor 2. Put plainly: Agonist activity at human CB2 receptor expressed in Sf9 membranes assessed as effect on [35S]-GTPgammaS binding after 30 mins by scintillation counting. Format: functional, cell membranes. For orientation: GTPγS is a poorly hydrolysed GTP analogue; its binding reports G protein activation.
A short description of test [10]: Selectivity ratio of Ki for rat CB1 receptor to Ki for human CB2 receptor.
Test [11] addresses T2, Cannabinoid receptor 2. Put plainly: Binding affinity to human CB2 receptor.
In test [12] the target is T1, Cannabinoid receptor 1. In words: Agonist activity at human CB1 receptor expressed in CHO-K1 cells assessed as inhibition of forskolin-induced cAMP accumulation by TR-FRET assay. The class given is functional, cell-based.
Test [13] concerns the target T1, Cannabinoid receptor 1. Put plainly: Binding affinity to human CB1 receptor.

T2 sequence (P34972 whole entry): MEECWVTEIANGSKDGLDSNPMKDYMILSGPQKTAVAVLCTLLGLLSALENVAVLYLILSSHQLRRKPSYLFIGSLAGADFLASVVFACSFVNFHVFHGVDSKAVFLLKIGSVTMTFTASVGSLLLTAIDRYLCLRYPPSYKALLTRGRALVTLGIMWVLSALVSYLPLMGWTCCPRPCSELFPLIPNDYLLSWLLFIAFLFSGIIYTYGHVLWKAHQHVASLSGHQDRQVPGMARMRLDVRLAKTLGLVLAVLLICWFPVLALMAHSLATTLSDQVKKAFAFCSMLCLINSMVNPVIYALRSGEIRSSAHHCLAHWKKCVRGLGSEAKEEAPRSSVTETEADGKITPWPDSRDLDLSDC
T1 sequence (P21554 whole entry): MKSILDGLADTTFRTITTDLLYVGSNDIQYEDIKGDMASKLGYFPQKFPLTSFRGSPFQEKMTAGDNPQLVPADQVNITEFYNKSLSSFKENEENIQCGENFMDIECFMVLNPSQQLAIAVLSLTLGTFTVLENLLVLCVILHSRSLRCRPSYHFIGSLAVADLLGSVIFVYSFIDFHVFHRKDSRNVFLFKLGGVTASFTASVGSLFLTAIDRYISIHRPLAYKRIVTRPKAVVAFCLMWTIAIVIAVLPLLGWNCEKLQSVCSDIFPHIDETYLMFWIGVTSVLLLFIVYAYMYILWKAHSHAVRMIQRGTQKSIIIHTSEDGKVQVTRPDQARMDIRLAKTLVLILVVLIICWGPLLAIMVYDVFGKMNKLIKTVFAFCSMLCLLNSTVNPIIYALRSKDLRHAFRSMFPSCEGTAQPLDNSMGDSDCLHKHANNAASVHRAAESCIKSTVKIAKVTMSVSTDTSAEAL

What is called pKi is the negative decadic logarithm of the Ki, by convention in mol/L. Consider `CCCCCn1cc(C(=O)c2cccc3ccccc23)c2ccccc21`, for which the pKi at Cannabinoid receptor 1 [1] was 8.02.

The term pEC50 denotes the EC50 on a negative log10 scale, so that one unit is a factor of ten. As to `COc1ccc(-c2nnc(NC(=O)C(C)(C)S(=O)(=O)C3CCOCC3)[nH]2)cc1`, at Cannabinoid receptor 1 [2], the pEC50 is less than 4.70.

`CC1CN1S(=O)(=O)c1ccc2c(c1)C1(OCCCO1)C(=O)N2CC1CC1` (stereo not drawn): at Cannabinoid receptor 2 [3], the pEC50 was 8.70.

For the molecule `COc1cccc2c(C(=O)N[C@@H]3C(C)(C)[C@@H]4CC[C@@]3(C)C4)cn(CCN3CCOCC3)c12`, the negative logarithm of the Ki (pKi) at Cannabinoid receptor 2 [4] was 7.96; on Cannabinoid receptor 1 [1], 6.61.

As to `CCCCCCC(C)(C)c1cc(OC)c2c(c1)OC(C)(C)[C@@H]1CC=C(C)C[C@@H]21`, the Ratio Ki in the test listed under Homo sapiens was more than 790.

In the case of `O=C(Nc1sc2c(c1C(=O)N1CCC1)CC1CCC2O1)c1c(F)cccc1C(F)(F)F` (stereo not drawn), in the test filed under Homo sapiens, the Ratio Ki stood at 10.

As to `CC(=O)N1CCC(Cn2c(C(C)(C)C)nc3cc(S(=O)(=O)C4CCCC4)ccc32)CC1`, the pEC50 on Cannabinoid receptor 2 [5] is 8.52.

Consider `CC(C)(C)c1cn(C[C@H]2CCCO2)/c(=N/C(=O)c2cc(C(F)(F)F)ccc2OCc2ccccn2)s1`, for which the pIC50 on Cannabinoid receptor 1 [6] is less than 4.57. The same molecule gave a pEC50 at Cannabinoid receptor 2 [7] of 9.00.

With `O=S(=O)(c1ccc(Cl)cc1)c1cnc2c(NCC3CCOCC3)cccc2c1`, the pEC50 at Cannabinoid receptor 2 [8] is more than 6.00.

`CCCn1c(C)c(C(=O)c2cc3ccsc3n2CCC)c2ccccc21`: the negative-log EC50 (pEC50) on Cannabinoid receptor 2 [9] is more than 7.00.

Regarding `CCCn1c(C)c(C(=O)c2cccc3cc(OC)ccc23)c2ccccc21`, on Cannabinoid receptor 1 [1], the negative logarithm of the Ki (pKi) is less than 5.00.

For the molecule `COCCN1CC(C)(C)S/C1=N\C(=O)c1cc(Cl)ccc1OC`, the Ratio Ki in the test listed under Homo sapiens worked out at 10.

Consider `CC1OCc2sc(NC(=O)C3C(C)(C)C3(C)C)c(C(=O)N3CC(F)(F)C3)c21` (stereo not drawn), for which the Ratio Ki in the test filed under Homo sapiens worked out at 10.

In turn, `Cc1ccc2c(c1)Cc1c(C(=O)NN3CCCCC3)nn(-c3ccc(Cl)cc3Cl)c1-2` showed a negative-log Ki (pKi) at Cannabinoid receptor 2 [4] of 10.43.

Turning to `CCCC(C)(C)c1ccc2c(c1)OC(C)(C)[C@@H]1CC=C(C)C[C@@H]21`, in test [10], the Ratio Ki is 200.

For `CNC(=O)[C@@H](NC(=O)c1nc(-c2ccccc2)n2c1CN(C)CCC2)C(C)(C)C`, the pEC50 at Cannabinoid receptor 1 [2] was less than 5.00; at Cannabinoid receptor 2 [5], 8.00.

In the case of `COc1cccc2c(C(=O)N[C@@H]3C(C)(C)[C@@H]4CC[C@@]3(C)C4)nn(CCN3CCOCC3)c12`, the figures for the pKi on Cannabinoid receptor 2 [4] and at Cannabinoid receptor 1 [1] were 8.70 and 7.62, respectively.

Molecule `CCCCC/C=C\C/C=C\C/C=C\C/C=C\CCCCOC(CO)CO` gave a pKi at Cannabinoid receptor 2 [11] of 5.52.

As to `Cc1c(C(=O)c2cccc(Cl)c2Cl)c2ccsc2n1CCN1CCOCC1`, the pEC50 at Cannabinoid receptor 2 [9] is more than 7.00.

As to `O=S(=O)(c1ccc2c(c1)C1C3CCC(C3)C1C(c1ccccc1)N2)N1CCOCC1` (stereo not drawn), the pEC50 on Cannabinoid receptor 1 [12] is less than 5.00.

For `Cc1sc(NC(=O)N2CCCN(C(=O)C3CCC(F)(F)CC3)CC2)nc1C(C)(C)C`, the pEC50 on Cannabinoid receptor 2 [5] is 9.15.

Take `C=C1CC[C@@H]2[C@@H](C1)c1c(OC)cc(C(C)(C)CCCCCC)cc1OC2(C)C`: the Ratio Ki in the test filed under Homo sapiens was more than 1000.

With `CN(C1CCOCC1)C(C)(C)C(=O)Nc1cc(C(C)(C)CO)no1`, the pEC50 at Cannabinoid receptor 1 [2] is less than 4.30.

As to `FC1(F)CCN(Cc2nc(-c3cccc(C(F)(F)F)c3)n3ccccc23)CC1`, the pEC50 on Cannabinoid receptor 2 [5] was 7.77.

Consider `COc1ccc(C(=O)c2cc3cc(C)n(CCN4CCOCC4)c3s2)cc1`, for which the pEC50 on Cannabinoid receptor 2 [9] was more than 7.00.

As to `CCCCCCC(C)(C)c1cc(O)c([C@H]2CC(=O)[C@H]3C[C@@H]2C3(C)C)c(OC(=O)/C=C/C(=O)O)c1` [PRS-211375], the pKi is 6.48 on Cannabinoid receptor 1 [13] and 8.05 at Cannabinoid receptor 2 [11]. Further, the Ratio Ki in the test listed under Homo sapiens came out at 37.

For the molecule `Clc1ccc(-c2nc(N3CCCCC3)c3ccccc3n2)c(Cl)c1`, at Cannabinoid receptor 2 [5], the negative logarithm of the Ki (pKi) is more than 6.00.

Consider `CCCCCCC(C)(C)c1cc(O)c2c(c1)OC(C)(C)C1CCC(=O)CC21` (stereo not drawn), for which the Ratio Ki in the test filed under Homo sapiens stood at 1.2.

With `CCCCCCC(C)(C)c1cc(O)c2c(c1)OC(C)(C)[C@@H]1CC=C(CO)C[C@@H]21`, the negative-log Ki (pKi) at Cannabinoid receptor 1 [13] was 9.14.

Turning to `COc1cccc2c(C(=O)c3ccc(Br)c4ccccc34)c(C)n(CCN3CCOCC3)c12`, the negative-log Ki (pKi) on Cannabinoid receptor 1 [1] was less than 6.00.

Consider `CC(C)(CO)c1cc(NC(=O)C(C)(C)S(=O)(=O)C2CCOCC2)on1`, for which, on Cannabinoid receptor 1 [2], the negative logarithm of the EC50 (pEC50) was less than 4.30.

On to `CCCCCCC(C)(C)c1cc(O)c2c(c1)OC(C)(C)[C@@H]1CC=C(C)C[C@@H]21`, for which the Ratio Ki in the test filed under Homo sapiens came out at 1.7.
